Here are results for 28 compounds from PubChem BioAssay AID720577 (The Scripps Research Institute Molecular Screening Center, 2013).

Molecules are shown by their SMILES. Calls of active or inactive are those of the source. The rule behind the calls is not given here. Bounds are passed on as bounds.

For this test, the target named is CCHF virus vOTU protease domain (L polyprotein). The experiment in a line: CCHF virus vOTU protease inhibition, Pep AMC substrate counterscreen, fluorescence, confirmatory IC50 (AID 720577). The conditions noted are these: purified vOTU.
For the compound `Cc1coc2c(O)cc3c(c12)OC1(N2CCCCC2)C(=O)NCCCC31` (stereo not drawn), the IC50 entry was “inactive”.
To `O=C1C=C(N2CCCCC2)c2ccccc2C1=O` belongs “inactive”; to `NC(=S)N=Nc1c(O)cc(O)c2[nH]c(=O)ccc12`, “inactive”; to `O=C1C=C(Nc2ccccc2)c2ccccc2C1=O`, “inactive”.
To `CCOC(=O)c1cc2c(=Cc3ccc(N(C)C)cc3)c3ccccc3n2[n+]1C` belongs 5.69 µM; to `C=CCN(CC=C)C(=S)Nc1ccc2nsnc2c1`, “inactive”.
The result for `CN(C)CCCNc1cc(O)c2ncccc2c1` reads “inactive”; that for `O=C1Cc2ccccc2C(=O)N1Cc1ccccc1`, 1.3 µM.
`CC(=O)N(C1=C(Cl)C(=O)c2ccccc2C1=O)c1ccc(C(=O)O)cc1`: the IC50 is 4.77 µM.
The result for `CC[n+]1c(-c2ccccc2)c2cc(N)ccc2c2ccc(N)cc21` reads 3.32 µM; that for `O=C(NC1=C(NC2CCS(=O)(=O)C2)C(=O)c2ccccc2C1=O)c1ccccc1` (stereo not drawn), “inactive”.
To `COC(=O)c1nc(-c2ccc3c(n2)C(=O)C(N)=C(OC)C3=O)c(N)c(-c2ccc(OC)c(OC)c2O)c1C` belongs 2.58 µM.
The result for `Cc1cc(NC2=CC(=O)C(=O)c3ccccc32)no1` reads “inactive”.
As to `O=C(OCc1nnc(-c2ccccc2)o1)c1ccc([N+](=O)[O-])s1`, the IC50 entry is “inactive”.
To `O=C1C=C(NCc2ccccc2)c2ccccc2C1=O` belongs “inactive”.
On to `CCCNC1=C(N(C(C)=O)c2cccc(F)c2)C(=O)c2ccccc2C1=O`, for which the IC50 was > 12.7 µM (inactive).
As for `CN=c1sc2c(n1C)C(=O)c1ccccc1C2=O`, the IC50 was 5.75 µM.
To `CCOC(=O)c1c2c(n(Cc3ccccc3)c1C)C(=O)C(=O)c1ccccc1-2` belongs 1.49 µM.
On to `CC(C)N(C(=O)Nc1ccc2nsnc2c1)C(C)C`, for which the IC50 was > 115 µM (inactive).
To `CC(=O)N(C)c1ccc(N=Cc2cc3c(cc2[N+](=O)[O-])OCO3)cc1` belongs “inactive”.
`NC1=C(Br)C(=O)c2ncccc2C1=O`: the IC50 is 1.1 µM.
For the compound `COc1cc(CCNC2=CC(=O)c3ncccc3C2=O)ccc1O`, the IC50 result is “inactive”.
The result for `CCOC(=O)c1c(C)[nH]c2c1-c1ccccc1C(=O)C2=O` reads 0.662 µM; that for `CCOC(=O)N=Nc1c2ccccc2c2nc3no[nH]c3nc12`, 7.75 µM; that for `O=C1C(SCCO)=C(SCCO)C(=O)c2ccccc21`, 7.34 µM.
To `CC1OC(CC(=O)O)CC2=C1C(=O)c1c(O)cccc1C2=O` (stereo not drawn) belongs “inactive”.
To `CCCCn1c(NS(=O)(=O)c2ccccc2)c(C(=O)OCC)c2nc3ccccc3nc21` belongs > 115 µM (inactive); to `C[n+]1c(-c2ccccc2)c2cc(N)ccc2c2ccc(N)cc21`, “inactive”.
